Assay results as given in patent publication US5539119A, “Indole derivatives” (priority 1990, dated 1996).

Experiments:
δ opioid receptor [1] = target: T1, δ opioid receptor (Cavia porcellus, UniProt A0A286XTF2); assay: Bonding (binding) assay, guinea pig brain homogenate, DPDPE (hot) / DADLE (cold); conditions: guinea pig brain homogenate; read-out: Bonding assay Ki value δ
T1 construct: the homogenate of the brain of a guinea pig; from tissue; host or cells: guinea pig brain homogenate
Experimental: (§1) In the test for bonding, the homogenate of the brain of a guinea pig was diluted with Tris buffer in a ratio calculated to give to the produced solution a protein content of 0.7 mg per prot/tube was used as incorporated in the reaction solution. With regard to ligands for binding assay, 3H-DAGO (μ), DPDPE (δ), and EKC (κ) were used for hot samples and naloxone (μ), DADLE (δ), and naloxone (κ) for cold samples.

δ opioid receptor [2] = assay: as above; conditions: μ/δ
Experimental: as §1

[3] = tested on: Guinea Pig Ileal Longitudinal Muscle; assay: GPI, shift of the compound's effect by naloxone or nor-BNI; parameters: GPI nor-BN1 Ke: unit not given here
Experimental: (§2) The test of the compounds of this invention for agonist and antagonist activities was carried out in according to the method proposed by Takemori et al. (Takemori, A, E. et al.: Eur. J. Pharmacal., 1982, 85, 163) using Guinea Pig Ileal Longitudinal Muscle Mouse Vas Deferens (MVD).

δ-receptor = target: T2, δ-receptor (Mus musculus, UniProt P32300); assay: Antagonism to DPDPE in Mouse Vas Deferens (MVD); conditions: at 100 nM
T2 construct: from tissue; host or cells: mouse vas deferens

κ opioid receptor = target: T3, κ opioid receptor (Cavia porcellus, UniProt P41144); assay: Bonding (binding) assay, guinea pig brain homogenate, EKC (hot) / naloxone (cold)
T3 construct: the homogenate of the brain of a guinea pig; from tissue; host or cells: guinea pig brain homogenate
Experimental: as §1

μ opioid receptor = target: T4, μ opioid receptor (Cavia porcellus, UniProt A0ACM8Q262); assay: Bonding (binding) assay, guinea pig brain homogenate, 3H-DAGO (hot) / naloxone (cold); conditions: for Ki: guinea pig brain homogenate; for Ki ratio κ/μ: selectivity ratio
T4 construct: 3H-DAGO (DAMGO) radioligand, cold naloxone
Experimental: as §1

Mouse Vas Deferens (MVD) = assay: Agonist activity in Mouse Vas Deferens (MVD); conditions: read-out: MVD IC50
Experimental: as §2

[4] = tested on: Guinea Pig Ileal Longitudinal Muscle; assay: Agonist activity in Guinea Pig Ileal Longitudinal Muscle (GPI); conditions: guinea pig ileum
Experimental: as §2

T4 sequence (A0ACM8Q262 1-400): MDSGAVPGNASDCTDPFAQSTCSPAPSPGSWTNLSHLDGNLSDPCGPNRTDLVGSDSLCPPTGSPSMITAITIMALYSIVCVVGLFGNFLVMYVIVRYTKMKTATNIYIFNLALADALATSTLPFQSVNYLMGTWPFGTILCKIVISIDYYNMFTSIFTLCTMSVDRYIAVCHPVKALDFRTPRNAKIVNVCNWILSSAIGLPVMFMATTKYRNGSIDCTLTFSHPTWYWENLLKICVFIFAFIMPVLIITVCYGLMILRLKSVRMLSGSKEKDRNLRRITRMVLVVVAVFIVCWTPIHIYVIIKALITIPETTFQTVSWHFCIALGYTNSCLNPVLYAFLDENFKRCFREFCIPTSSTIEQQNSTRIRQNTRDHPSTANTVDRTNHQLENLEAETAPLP
T3 sequence (P41144 whole entry): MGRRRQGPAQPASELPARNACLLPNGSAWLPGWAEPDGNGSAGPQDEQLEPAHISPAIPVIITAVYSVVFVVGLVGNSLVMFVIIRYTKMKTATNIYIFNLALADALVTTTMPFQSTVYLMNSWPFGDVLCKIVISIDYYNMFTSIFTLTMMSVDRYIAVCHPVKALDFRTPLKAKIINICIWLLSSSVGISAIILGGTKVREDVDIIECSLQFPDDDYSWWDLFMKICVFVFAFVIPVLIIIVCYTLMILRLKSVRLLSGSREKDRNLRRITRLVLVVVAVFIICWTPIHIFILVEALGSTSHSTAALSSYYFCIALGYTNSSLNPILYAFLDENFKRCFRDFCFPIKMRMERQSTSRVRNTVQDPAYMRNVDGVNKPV
T1 sequence (A0A286XTF2 1-366): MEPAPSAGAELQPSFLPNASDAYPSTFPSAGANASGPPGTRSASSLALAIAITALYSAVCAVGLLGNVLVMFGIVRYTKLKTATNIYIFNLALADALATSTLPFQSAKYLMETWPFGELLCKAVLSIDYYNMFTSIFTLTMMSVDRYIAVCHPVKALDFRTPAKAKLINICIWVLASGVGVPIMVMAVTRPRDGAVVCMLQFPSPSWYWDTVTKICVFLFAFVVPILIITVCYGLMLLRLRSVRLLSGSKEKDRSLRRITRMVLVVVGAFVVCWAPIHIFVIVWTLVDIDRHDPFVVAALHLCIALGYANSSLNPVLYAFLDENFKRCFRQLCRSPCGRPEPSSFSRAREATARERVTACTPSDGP
T2 sequence (P32300 whole entry): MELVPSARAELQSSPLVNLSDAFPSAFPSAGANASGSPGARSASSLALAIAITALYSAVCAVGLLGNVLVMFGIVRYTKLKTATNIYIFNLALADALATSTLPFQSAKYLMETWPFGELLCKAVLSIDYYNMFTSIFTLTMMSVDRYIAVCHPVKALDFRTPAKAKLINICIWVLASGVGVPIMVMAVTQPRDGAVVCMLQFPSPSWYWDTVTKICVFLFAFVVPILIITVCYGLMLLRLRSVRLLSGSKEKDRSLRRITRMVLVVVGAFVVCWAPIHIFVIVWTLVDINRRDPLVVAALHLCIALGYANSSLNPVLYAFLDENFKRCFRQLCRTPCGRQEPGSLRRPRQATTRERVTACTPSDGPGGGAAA

CN1CC[C@]2(c3cccc(O)c3)Cc3[nH]c4ccccc4c3C[C@H]2C1 (relative stereo) [Compound 2, 2-Methyl-4aα-(3-hydroxyphenyl)-1,2,3,4,4a,5,11,11aβ-octahydro-6H-indolo[2,3-g]isoquinoline]
Ki (δ opioid receptor [1]): 0.193 µM
Ki ratio μ/δ (δ opioid receptor [2]): > 30.9
Ki ratio μ/δ (δ opioid receptor [2]; selectivity ratio): 8.55
GPI naloxone DR [3]: 1.12
GPI nor-BN1 DR [3]: 1.25
GPI nor-BN1 Ke [3]: 301
GPI nor-BN1 pA2 [3]: 6.65
Kb (δ-receptor): 0.138 µM
MVD Antagonism to DPDPE at 100 nM, DR (δ-receptor): 8.14
Ki (κ opioid receptor): > 5.97 µM
Ki (μ opioid receptor): 1.65 µM
Ki ratio κ/μ (μ opioid receptor): > 3.62
IC50 (Mouse Vas Deferens (MVD)): 68.6 µM
IC50 [4]: 65.1 µM

Cc1ccc2[nH]c3c(c2c1)C[C@H]1CN(C)CC[C@]1(c1cccc(O)c1)C3 (relative stereo) [Compound 4, 2-Methyl-4aα-(3-hydroxyphenyl)-9-methyl-1,2,3,4,4a,5,11,11aβ-octahydro-6H-indolo[2,3-q]isoquinoline]
Ki (δ opioid receptor [1]): 1.24 µM
Ki ratio μ/δ (δ opioid receptor [2]): > 9.35
Ki ratio μ/δ (δ opioid receptor [2]; selectivity ratio): 5.18
GPI naloxone DR [3]: 0.62
GPI nor-BN1 DR [3]: 1.17
Kb (δ-receptor): 0.427 µM
MVD Antagonism to DPDPE at 100 nM, DR (δ-receptor): 3.37
Ki (κ opioid receptor): > 11.6 µM
Ki (μ opioid receptor): 6.42 µM
Ki ratio κ/μ (μ opioid receptor): > 1.81
IC50 (Mouse Vas Deferens (MVD)): 46.1 µM
IC50 [4]: 28 µM

CN1CC[C@]2(c3cccc(O)c3)Cc3[nH]c4ccc(Cl)cc4c3C[C@H]2C1 (relative stereo) [Compound 6, 2-Methyl-4aα-(3-hydroxyphenyl)-9-chloro-1,2,3,4,4a,5,11,11aβ-octahydro-6H-indolo[2,3-q]isoquinoline]
Ki (δ opioid receptor [1]): 1.1 µM
Ki ratio μ/δ (δ opioid receptor [2]): > 24.9
Ki ratio μ/δ (δ opioid receptor [2]; selectivity ratio): > 6.45
GPI naloxone DR [3]: 0.86
GPI nor-BN1 DR [3]: 1.23
GPI nor-BN1 Ke [3]: 77.0
GPI nor-BN1 pA2 [3]: 7.16
Kb (δ-receptor): 0.24 µM
MVD Antagonism to DPDPE at 100 nM, DR (δ-receptor): 5.16
Ki (κ opioid receptor): > 27.4 µM
Ki (μ opioid receptor): > 7.09 µM
Ki ratio κ/μ (μ opioid receptor): > 3.86
IC50 (Mouse Vas Deferens (MVD)): 23.6 µM
IC50 [4]: 7.9 µM
